Results taken from ChEMBL document CHEMBL4354870, “GSK2818713, a Novel Biphenylene Scaffold-Based Hepatitis C NS5A Replication Complex Inhibitor with Broad Genotype Coverage” (J Med Chem, 2020).

Experiments:
[1] = target: T1, Nonstructural protein 5A (Hepatitis C virus) (UniProt Q5L478); assay: Potency index, ratio of EC50 of cpd1 to EC50 of compound for inhibition of HCV genotype 2a con NS5A infected in HuH-Lcu-Neo cells assessed as reduction in viral replication incubated for 48 hrs by luciferase reporter gene assay; type: cell-based; conditions: Hepatitis C virus subtype 2a
T1 sequence (whole entry): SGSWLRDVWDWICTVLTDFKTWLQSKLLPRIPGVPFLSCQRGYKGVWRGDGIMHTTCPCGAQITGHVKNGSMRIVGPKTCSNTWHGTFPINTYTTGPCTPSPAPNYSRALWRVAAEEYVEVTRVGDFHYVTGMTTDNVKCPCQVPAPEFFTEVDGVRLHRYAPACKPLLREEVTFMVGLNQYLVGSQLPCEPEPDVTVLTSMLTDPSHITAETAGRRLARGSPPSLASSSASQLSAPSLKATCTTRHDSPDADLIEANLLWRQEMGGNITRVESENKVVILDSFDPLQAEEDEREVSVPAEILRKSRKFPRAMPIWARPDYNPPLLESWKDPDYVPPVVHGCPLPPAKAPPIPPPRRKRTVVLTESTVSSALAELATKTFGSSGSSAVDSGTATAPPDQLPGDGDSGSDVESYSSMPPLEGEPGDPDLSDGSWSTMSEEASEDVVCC

[2] = AUC (0 to t) in Beagle dog at 1 mg/kg, iv by LC-MS/MS analysis; type: ADME, organism-based, Canis lupus familiaris; conditions: in vivo
[3] = AUC (0 to infinity) in Beagle dog at 1 mg/kg, iv by LC-MS/MS analysis; type: ADME, organism-based, Canis lupus familiaris; parameters: dose 1 mg/kg, route intravenous, time infinity; conditions: in vivo
[4] = AUC (0 to t) in CD1 mouse at 1 mg/kg, iv by LC-MS/MS analysis; type: ADME, organism-based; conditions: in vivo
[5] = Clearance in CD1 mouse at 1 mg/kg, iv by LC-MS/MS analysis; type: ADME, organism-based; conditions: in vivo
[6] = AUC (0 to infinity) in Han Wistar rat at 5 mg/kg, po by LC-MS/MS analysis; type: ADME, organism-based; parameters: dose 5 mg/kg, time infinity, route oral; conditions: in vivo
[7] = AUC (0 to t) in Han Wistar rat at 1 mg/kg, iv by LC-MS/MS analysis; type: ADME, organism-based; conditions: in vivo
[8] = Oral bioavailability in Beagle dog at 1 mg/kg by LC-MS/MS analysis; type: ADME, organism-based, Canis lupus familiaris; conditions: in vivo
[9] = Cmax in Han Wistar rat at 5 mg/kg, po by LC-MS/MS analysis; type: ADME, organism-based; parameters: dose 5 mg/kg, route oral; conditions: in vivo
[10] = AUC (0 to infinity) in Han Wistar rat at 1 mg/kg, iv by LC-MS/MS analysis; type: ADME, organism-based; parameters: dose 1 mg/kg, time infinity, route intravenous; conditions: in vivo
[11] = Clearance in Beagle dog at 1 mg/kg, iv by LC-MS/MS analysis; type: ADME, organism-based, Canis lupus familiaris; conditions: in vivo
[12] = Volume of distribution at steady state in Beagle dog at 1 mg/kg, iv by LC-MS/MS analysis; type: ADME, organism-based, Canis lupus familiaris; conditions: in vivo, read-out: Vdss
[13] = Oral availability in Han Wistar rat at 5 mg/kg by LC-MS/MS analysis; type: ADME, organism-based; conditions: in vivo
[14] = Half life in Han Wistar rat at 1 mg/kg, iv by LC-MS/MS analysis; type: ADME, organism-based; conditions: in vivo
[15] = Half life in Beagle dog at 1 mg/kg, iv by LC-MS/MS analysis; type: ADME, organism-based, Canis lupus familiaris; conditions: in vivo
[16] = Half life in Han Wistar rat at 5 mg/kg, po by LC-MS/MS analysis; type: ADME, organism-based; conditions: in vivo
[17] = Volume of distribution at steady state in CD1 mouse at 1 mg/kg, iv by LC-MS/MS analysis; type: ADME, organism-based; conditions: in vivo, read-out: Vdss
[18] = Tmax in Beagle dog at 1 mg/kg, po by LC-MS/MS analysis; type: ADME, organism-based, Canis lupus familiaris; conditions: in vivo
[19] = AUC (0 to t) in Beagle dog at 1 mg/kg, po by LC-MS/MS analysis; type: ADME, organism-based, Canis lupus familiaris; conditions: in vivo
[20] = AUC (0 to t) in CD1 mouse at 5 mg/kg, po by LC-MS/MS analysis; type: ADME, organism-based; conditions: in vivo
[21] = Cmax in Beagle dog at 1 mg/kg, po by LC-MS/MS analysis; type: ADME, organism-based, Canis lupus familiaris; parameters: dose 1 mg/kg, route oral; conditions: in vivo
[22] = AUC (0 to infinity) in CD1 mouse at 5 mg/kg, po by LC-MS/MS analysis; type: ADME, organism-based; parameters: dose 5 mg/kg, route oral, time infinity; conditions: in vivo
[23] = Clearance in Han Wistar rat at 1 mg/kg, iv by LC-MS/MS analysis; type: ADME, organism-based; conditions: in vivo
[24] = Cmax in CD1 mouse at 5 mg/kg, po by LC-MS/MS analysis; type: ADME, organism-based; parameters: dose 5 mg/kg, route oral; conditions: in vivo
[25] = Half life in CD1 mouse at 5 mg/kg, po by LC-MS/MS analysis; type: ADME, organism-based; conditions: in vivo
[26] = AUC (0 to infinity) in CD1 mouse at 1 mg/kg, iv by LC-MS/MS analysis; type: ADME, organism-based; parameters: dose 1 mg/kg, time infinity, route intravenous; conditions: in vivo
[27] = Half life in CD1 mouse at 1 mg/kg, iv by LC-MS/MS analysis; type: ADME, organism-based; conditions: in vivo
[28] = AUC (0 to infinity) in Beagle dog at 1 mg/kg, po by LC-MS/MS analysis; type: ADME, organism-based, Canis lupus familiaris; parameters: dose 1 mg/kg, route oral, time infinity; conditions: in vivo
[29] = Half life in Beagle dog at 1 mg/kg, po by LC-MS/MS analysis; type: ADME, organism-based, Canis lupus familiaris; conditions: in vivo
[30] = AUC (0 to t) in Han Wistar rat at 5 mg/kg, po by LC-MS/MS analysis; type: ADME, organism-based; conditions: in vivo
[31] = Tmax in Han Wistar rat at 5 mg/kg, po by LC-MS/MS analysis; type: ADME, organism-based; conditions: in vivo
[32] = Tmax in CD1 mouse at 5 mg/kg, po by LC-MS/MS analysis; type: ADME, organism-based; conditions: in vivo
[33] = Oral bioavailability in CD1 mouse at 5 mg/kg by LC-MS/MS analysis; type: ADME, organism-based; conditions: in vivo
[34] = Volume of distribution at steady state in Han Wistar rat at 1 mg/kg, iv by LC-MS/MS analysis; type: ADME, organism-based; conditions: in vivo, read-out: Vdss

In the case of `CN(C)[C@@H](C(=O)N1CCC[C@H]1c1ncc(-c2ccc3c(c2)-c2ccc(-c4cnc([C@@H]5CCCN5C(=O)[C@@H](c5ccccc5)N(C)C)[nH]4)cc2-3)[nH]1)c1ccccc1`, the Ratio EC50 [1] is reported as 98.

`COC(=O)N[C@H](C(=O)N1[C@H](c2ncc(-c3ccc4c(c3)-c3ccc(-c5cnc([C@@H]6C[C@@H]7CCC[C@@H]7N6C(=O)[C@@H](NC(=O)OC)[C@@H](C)OC)[nH]5)cc3-4)[nH]2)C[C@@H]2CCC[C@@H]21)[C@@H](C)OC` gave an AUC(0-t) [2] of 3.14 µg·h/mL, an AUC(0-inf) [3] of 3.18 µg·h/mL and an AUC(0-t) [4] of 1.07 µg·h/mL. It also gave a clearance [5] of 0.924 L/h/kg, an AUC(0-inf) [6] of 0.216 µg·h/mL and an AUC(0-t) [7] of 0.498 µg·h/mL. For the same compound, the bioavailability [8] was 20%, the Cmax [9] was 0.032 µg/mL and the AUC(0-inf) [10] was 0.501 µg·h/mL. The clearance [11] was 0.318 L/h/kg, the Vd [12] was 1 L/kg and the bioavailability [13] was 9%. For the same compound, the half-life [14] was 1.5 h, the half-life [15] was 5.2 h and the half-life [16] was 4.8 h. It also gave a Vd [17] of 1.3 L/kg, a Tmax [18] of 4 h and an AUC(0-t) [19] of 0.593 µg·h/mL. The AUC(0-t) [20] was 2.49 µg·h/mL, the Cmax [21] was 0.099 µg/mL and the AUC(0-inf) [22] was 2.55 µg·h/mL. The clearance [23] was 2.03 L/h/kg, the Cmax [24] was 0.506 µg/mL and the half-life [25] was 1.7 h. The AUC(0-inf) [26] was 1.1 µg·h/mL, the half-life [27] was 1.7 h and the AUC(0-inf) [28] was 0.633 µg·h/mL. The half-life [29] was 6 h, the AUC(0-t) [30] was 0.178 µg·h/mL and the Tmax [31] was 2 h. For the same compound, the Tmax [32] was 2 h, the bioavailability [33] was 46% and the Vd [34] was 1.3 L/kg.
